Measurements reported in patent US6518012B1, “Method for regulating the expression of MHC antigens and CD40 by inhibitors of histone deacetylation” (Health Research, Inc., priority 1999, dated 2003).

What was measured:
Format in all cases: cell-based
[1] = system: HLA-DRα mRNA; assay: HLA-DRα mRNA by standard PCR and real-time PCR in human cell lines JAR and SK-N-MC; settings: JAR; for fold increase in HLA-DRα (MHC class II) mRNA over the control: real time quantitative RT-PCR, 100 nM TSA, IFNγ 100 U/ml or combination for 12 hours, sodium butyrate (FIG. 2)
Experimental: (§1) To determine the effect of DAIs on HLA-DRα mRNA, cytoplasmic RNA was isolated from untreated and treated human trophoblast cell line JAR using standard techniques (RNeasy System from Qiagen). Standard PCR was performed using primers for DR and CIITA (Murphy et al., 1998, Reprod Dev., Chin et al., 1994, Immunity 1:687-697). Other primers used included human and mouse GAPDH (Clontech) and forward primer 5′-[…]-3′ (SEQ ID NO:25) and reverse primer 5′-[…]-3′ (SEQ ID NO:26) for mouse CIITA. PCR products were amplified with GOLD Taq for 10 min at 95° C., then 95° C. for 30 sec, 60° C. for 60 sec (25-45 cycles), then an extension at 60° C. for 10 min.
(§2) Oligonucleotide primers and TaqMan 5′-6-FAM and 3′-TAMRA-labeled probes were synthesized in the RPCI Biopolymer Facility. Primer and probe sequences are listed under Sequence Listing and also in FIG. 9. Sequences were designed using standard software (PrimerExpress software, PE Biosystems) except for human GAPDH.
(§3) Realtime PCR reactions contained TaqMan Universal PCR Master Mix (PE Biosystems), primers at 300 nM, and probes at optimal concentrations (150-225 nM depending on gene). Reactions were carried out on an ABI PRISM 7700 Sequence Detection System (PE Biosystems). Cycling conditions were 50° C. for 2 min, 95° C. for 10 min, then 60 cycles of 95° C. for 15 sec, 60° C. for 1 min. PCR samples were run in triplicate. The detection system and quantitative PCR was carried out as described by Williamson et al. (1995, Genet Res. 65:83-93). The threshold cycle number CT corresponded to the cycle number, at which the fluorescent emission reaches 10 standard deviations above the mean fluorescent emission, measured during the early ‘baseline’ cycles of the PCR. The CT values for triplicates were averaged and normalized to GAPDH levels. […] Assuming reverse transcription efficiencies were approximately the same for each sample, relative amounts of mRNA using the comparative CT method. Fold changes in mRNA levels were calculated as 2^x where x=the difference between normalized CT values of the control and experimental samples.
To evaluate the effects of DAIs on human cells, the human trophoblast cell line was treated with 100 nM Trichostatin A (TSA), IFNγ (100 U/ml) or a combination of TSA and IFNγ for 12 hours. RNA was isolated and real time quantitative RT-PCR was carried out. The fold increase in mRNA over the control was calculated.

[2] = system: class II transactivator (CIITA) mRNA; assay: CIITA mRNA by standard PCR and real-time PCR in human cell lines JAR and SK-N-MC; settings: for CIITA mRNA fold change: MC cells, real time PCR up to 60 cycles, 100 nM TSA 24 hr, NaBu 1 mM 48 hr
Experimental: as §1, §2, §3
[…] RNA was isolated and real time quantitative RT-PCR was carried out. The fold increase in mRNA over the control was calculated.

[3] = system: IAα mRNA; assay: MHC class II (IAα) mRNA by RT-PCR and real-time PCR in mouse tumor models; settings: for fold increase in Ia (Iα): real-time PCR; for class II mRNA activation: titration with different concentrations of TSA for 12 hours, RT-PCR and real-time PCR
Experimental: as §1
In order to obtain more quantitative information on fold changes in DR and CIITA after treatment with the deacetylase inhibitors, a real time fluorescence technique capable of quantitating low copy numbers of transcripts was carried out as follows. Oligonucleotide primers and TaqMan 5′-6-FAM and 3′-TAMRA-labeled probes were synthesized in the RPCI Biopolymer Facility. Primer and probe sequences are listed under Sequence Listing and also in FIG. 9. Sequences were designed using standard software (PrimerExpress software, PE Biosystems) except for human GAPDH.
Realtime PCR reactions contained TaqMan Universal PCR Master Mix (PE Biosystems), primers at 300 nM, and probes at optimal concentrations (150-225 nM depending on gene). Reactions were carried out on an ABI PRISM 7700 Sequence Detection System (PE Biosystems). Cycling conditions were 50° C. for 2 min, 95° C. for 10 min, then 60 cycles of 95° C. for 15 sec, 60° C. for 1 min. PCR samples were run in triplicate. The detection system and quantitative PCR was carried out as described by Williamson et al. (1995, Genet Res. 65:83-93). The threshold cycle number CT corresponded to the cycle number, at which the fluorescent emission reaches 10 standard deviations above the mean fluorescent emission, measured during the early ‘baseline’ cycles of the PCR. The CT values for triplicates were averaged and normalized to GAPDH levels. […] In such cases, in order to calculate a minimum fold change for other samples in the same group, the CT value was arbitrarily set at 40. […] Assuming reverse transcription efficiencies were approximately the same for each sample, relative amounts of mRNA using the comparative CT method. Fold changes in mRNA levels were calculated as 2^x where x=the difference between normalized CT values of the control and experimental samples.
To determine if the effect of DAIs on MHC class II was manifested in other tumors and in different species, the effect of TSA was tested on four commonly used mouse tumor models: the SaI fibrosarcoma, the Colon 26 adenocarcinoma, the J558 plasmacytoma and the P815 mastocytoma. TSA induced class II in all four mouse tumors examined, while the effects of IFNγ were variable (FIG. 4). Data presented for each cell line represents optimal incubation time and concentration of TSA and is compared with 100 U/ml of IFNγ at the same time point. Numbers over bars represents fold changes. […] Colon 26 and J558 that differed strikingly in their reactivity to IFNγ were selected for further evaluation. RT-PCR and real time PCR was used to examine induction of CIITA and IAα by TSA and IFNγ. A20, a constitutively positive B cell line was used as a positive control. The results are shown in FIGS. 5A-D. The numbers over bars represent fold changes. […] Since the classical IFNγ inducible genes IRF-1 and GBP as well as MHC class I mRNA were not induced by IFNγ in J558 (data not shown), this cell line may have a signaling defect in the IFNγ pathway. Unexpectedly however, and unlike either the MC or Colon 26 cells, TSA induced both CIITA (102-fold) and Iα (537-fold) in J558 as shown in FIGS. 5B and 5D.

[4] = SK-N-MC, routine RT-PCR at 35 cycles, 100 nM TSA 24 hours, 1 mM NaBu 48 hours, IFNγ

Row | Compound | fold increase in HLA-DRα (MHC class II) mRNA over the control [1] | levels of mRNA for DR ([1]; standard PCR, 100 nM or 250 nM TSA or 1 mM sodium butyrate) | CIITA transcription ([2]; JAR, standard PCR at 35 cycles, 100 nM or 250 nM TSA or 1 mM sodium butyrate) | CIITA mRNA fold change ([2]; IFNγ) | CIITA transcription [2, 4] | fold increase in Ia (Iα) ([3]; Colon 26) [fold] | Iα (class II) fold induction ([3]; J558, RT-PCR and real-time PCR (FIGS. 5B and 5D)) [fold] | class II mRNA activation ([3]; J558) | induction of class II mRNA ([3]; all four mouse tumors (SaI, Colon 26, J558, P815), optimal incubation time and concentration of TSA) | expression of class II ([3]; Colon 26, standard RT-PCR at 35 cycles) | induction of class II mRNA ([3]; J558, 100 U/ml IFNγ (FIG. 4)) | class II mRNA ([3]; P815, 100 U/ml IFNγ (FIG. 4)) | fold-increases in class II mRNA compared with TSA ([3]; SaI and Colon 26, 100 U/ml IFNγ)
1 | CC(/C=C/C(=O)NO)=C\[C@@H](C)C(=O)c1ccc(N(C)C)cc1 [TSA, Trichostatin A] | 15 fold | substantial increase | undetectable | no increase | undetectable | 74 | 537 | induced | induced | – | – | – | –
2 | IFNγ: gamma-interferon, cytokine used as comparator at 100 U/ml | did not induce | – | – | 4 fold | not detected | 58 | – | failed to activate | – | induced | failed to induce | only weakly enhanced | nearly equivalent fold-increases
